Key:
CT-DNA-EB adduct = assay: Fluorescence competitive displacement of ethidium bromide from CT-DNA; type: binding, calf; details: for CT-DNA-EB-Complex Ksv (M^−1) × 10^4: Stern–Volmer quenching constant, EB displacement, 25 °C; for CT-DNA-EB-Complex Kq (M^−1S^−1) × 10^12: bimolecular quenching constant, Ksv = Kqτo, τo 10^−8 s; for CT-DNA-EB-Complex Kbin (M^−1) × 10^5: binding constant from double-logarithmic plot
Method in brief: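 CT-DNA (15 µM) was pre-equilibrated 30 min with ethidium bromide (15 µM) in phosphate buffer pH 7.2, then titrated with complexes (0–20 µM) at 8-min intervals at room temperature. EB emission was recorded at 530–700 nm (excitation 525 nm, 25 °C), and quenching was analysed by Stern–Volmer to give Ksv and Kq (τo taken as 10^−8 s).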

[1] = test system: Pseudomonas aeruginosa ATCC 27853; assay: Minimum inhibitory concentration (MIC), spotting on Müeller–Hinton agar; type: cell-based; details: Gram − Ve; P. aeruginosa; 37 °C, 18 h
calf thymus DNA (CT-DNA) = assay: CT-DNA electronic absorption titration (Wolfe–Shimer); type: binding; details: intrinsic binding constant, absorption titration, PBS pH 7.2

SMILES | CT-DNA-EB-Complex Ksv (M^−1) × 10^4 (CT-DNA-EB adduct) | CT-DNA-EB-Complex Kq (M^−1S^−1) × 10^12 (CT-DNA-EB adduct) | CT-DNA-EB-Complex Kbin (M^−1) × 10^5 (CT-DNA-EB adduct) | Minimum inhibitory concentration, PA [1] [µg/mL] | CT-DNA-Cmp. Kb (M^−1) × 10^5 (calf thymus DNA (CT-DNA))
[Ag+].[O-][Cl+3]([O-])([O-])[O-].c1ccc2nc(-c3nc4ccccc4s3)ccc2c1.c1ccc2nc(-c3nc4ccccc4s3)ccc2c1 [Complex Q7, [Ag(L2)2]ClO4] | 3.96 (M^−1) × 10^4 | 3.96 (M^−1S^−1) × 10^12 | 1.29 (M^−1) × 10^5 | 0.2 | 15.0 (M^−1) × 10^5
Cc1ccc(N=Cc2ccc3ccccc3n2)cc1.Cc1ccc(N=Cc2ccc3ccccc3n2)cc1.[Ag+].[O-][Cl+3]([O-])([O-])[O-] [Complex Q9, [Ag(L4)2]ClO4] | 2.49 (M^−1) × 10^4 | 2.49 (M^−1S^−1) × 10^12 | 6.53 (M^−1) × 10^5 | – | 5.00 (M^−1) × 10^5

— paper PMC7956476, “Quinoline Functionalized Schiff Base Silver (I) Complexes: Interactions with Biomolecules and In Vitro Cytotoxicity, Antioxidant and Antimicrobial Activities” (Molecules, 2021)
